Assay results taken from US4110327A, “2,3 Diketo-piperazinocarbonylamino alkanoic acids and derivatives” (Toyama Chemical Co., Ltd., priority 1974, dated 1978).
In brackets after ≈: the same amount, converted by molar mass.

Columns and labels:
Klebsiella pneumoniae [1] = experiment: MIC against clinical isolates; assay type: cell-based; settings: unit assumed
Staphylococcus aureus = experiment: MIC against clinical isolates; assay type: cell-based; settings: unit assumed
Escherichia coli = experiment: MIC against clinical isolates; assay type: cell-based; settings: unit assumed
Proteus mirabilis = experiment: MIC against clinical isolates; assay type: cell-based; settings: clinical isolate, unit assumed
Salmonella typhi-murium = experiment: MIC against clinical isolates; assay type: cell-based; settings: unit assumed
Proteus vulgaris 3027 = experiment: MIC against standard strain, plate method; assay type: cell-based; settings: Proteus vulgaris 3027, standard strain; unit assumed
Method in brief: (§1)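 MIC values come from the plate method on heart infusion agar at pH 7.4, with each plate receiving 10^4 cells from a 10^6 cells/ml suspension.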

Escherichia coli NIHJ = experiment: MIC against standard strain, plate method; assay type: cell-based; settings: unit assumed
Method in brief: as §1

Klebsiella pneumoniae [2] = experiment: MIC against standard strain, plate method; assay type: cell-based; settings: unit assumed
Method in brief: as §1

[3] = system: Staphylococcus aureus 209p; experiment: MIC against standard strain, plate method; assay type: cell-based; settings: unit assumed
Method in brief: as §1

β-lactamase = experiment: Resistant activity against β-lactamase, iodometric assay; assay type: biochemical, Pseudomonas aeruginosa GN 238; settings: relative to Potassium Penicillin G = 100
Experimental: (3) Resistant activity against β-lactamase, Pseudomonas aergionan GN 238:
The resistant activity of each compound against β-lactamase was measured in the manner described below.
β-Lactamase was prepared from Pseudomonas aeruginosa GN 238. This microorganism was cultured in 100 ml of a medium containing 2 g of yeast extract, 10 g of polypeptone, 2 g of glucose, 7 g of disodium hydrogen phosphate, 2 g of potassium dihydrogen phosphate, 1.2 g of ammonium sulfate and 0.4 g of magnesium sulfate, per liter, in a 500-ml Erlenmeyer flask for 6 hrs. at 37° C with shaking. The resulting cells were collected by centrifugation (5,000 r.p.m. × 10 min.), washed three times with 0.1 M phosphate buffer (pH 7.0). Subsequently, the cells were subjected to sonication (20 KHz, 20 min.) and then centrifuged at 15,000 r.p.m. for 60 min. By using the supernatant of enzyme fluid, the resistance of each compound against β-lactamase was determined by the iodometric assay method. Each numeral shown in Table 7 is a relative activity value calculated by assuming as 100 the activity of the control Potassium Penicillin G.

Shigella flexneri = experiment: MIC against clinical isolates; assay type: cell-based; settings: unit assumed
Experimental: (§2) The minimum inhibitory concentrations (MIC) was determined by the plate method disclosed in "Chemotherapy" (Japan), Vol. 16, (1968), pages 98 - 99. The culture medium used was a Heart infusion agar (pH 7.4). The number of the cells per plate used in the inoculum as 10^4 (10^6 cells/ml).
(§3) MIC was determined in the same manner as in the preceding paragraph (1).

Shigella sonnei = experiment: MIC against clinical isolates; assay type: cell-based; settings: unit assumed
Experimental: as §2, §3

Salmonella typhi = experiment: MIC against clinical isolates; assay type: cell-based; settings: unit assumed
Proteus morganii = experiment: MIC against clinical isolates; assay type: cell-based; settings: clinical isolate, unit assumed
Pseudomonas aeruginosa = experiment: MIC against clinical isolates; assay type: cell-based; settings: unit assumed
Proteus vulgaris = experiment: MIC against clinical isolates; assay type: cell-based; settings: clinical isolate, unit assumed
Proteus rettgeri = experiment: MIC against clinical isolates; assay type: cell-based; settings: clinical isolate, unit assumed
[4] = system: Pseudomonas aeruginosa I.F.O.; experiment: MIC against standard strain, plate method; assay type: cell-based; settings: unit assumed
Method in brief: as §1

`CC(C)N1CCN(C(=O)N[C@@H](C(=O)N[C@@H]2C(=O)N3[C@@H]2SC(C)(C)[C@@H]3C(=O)O)c2ccccc2)C(=O)C1=O` (single isomer, unassigned) [compound 40] was tested, and the MIC (Klebsiella pneumoniae [1]; clinical isolate GN 3850) was 12.5 µg/mL (≈ 23.5 µM), the MIC (Klebsiella pneumoniae [1]; clinical isolate GN 4081) was 100 µg/mL (≈ 188 µM) and the MIC (Klebsiella pneumoniae [1]; clinical isolate GN 4117) was 50 µg/mL (≈ 94.1 µM). For the same compound, the MIC (Staphylococcus aureus; clinical isolate F-2) was 3.13 µg/mL (≈ 5.89 µM), the MIC (Staphylococcus aureus; clinical isolate F-3) was 0.79 µg/mL (≈ 1.49 µM) and the MIC (Staphylococcus aureus; clinical isolate F-5) was greater than 200 µg/mL. It also gave an MIC (Staphylococcus aureus; clinical isolate MS 8588) of 3.13 µg/mL (≈ 5.89 µM), an MIC (Staphylococcus aureus; clinical isolate MS 8596) of 3.13 µg/mL (≈ 5.89 µM) and an MIC (Staphylococcus aureus; clinical isolate MS 8619) of 0.79 µg/mL (≈ 1.49 µM). It also gave an MIC (Staphylococcus aureus; clinical isolate MS 8684) of 3.13 µg/mL (≈ 5.89 µM), an MIC (Staphylococcus aureus; clinical isolate MS 8713) of 12.5 µg/mL (≈ 23.5 µM) and an MIC (Escherichia coli; clinical isolate GN 3435) of 0.79 µg/mL (≈ 1.49 µM). For the same compound, the MIC (Escherichia coli; clinical isolate GN 3465) was 50 µg/mL (≈ 94.1 µM), the MIC (Escherichia coli; clinical isolate GN 3611) was greater than 200 µg/mL and the MIC (Escherichia coli; clinical isolate K-2) was 3.13 µg/mL (≈ 5.89 µM). It also gave an MIC (Escherichia coli; clinical isolate K-3) greater than 200 µg/mL, an MIC (Escherichia coli; clinical isolate K-4) of 0.79 µg/mL (≈ 1.49 µM) and an MIC (Proteus mirabilis) of less than 0.4 µg/mL. The MIC (Salmonella typhi-murium; clinical isolate SL 858) was 6.25 µg/mL (≈ 11.8 µM), the MIC (Salmonella typhi-murium; clinical isolate SL 2136) was greater than 200 µg/mL and the MIC (Proteus vulgaris 3027) was 0.4 µg/mL (≈ 0.752 µM). The MIC (Escherichia coli NIHJ) was less than 0.1 µg/mL, the MIC (Klebsiella pneumoniae [2]) was 3.13 µg/mL (≈ 5.89 µM) and the MIC [3] was 0.4 µg/mL (≈ 0.752 µM). The Relative activity (β-lactamase) was 15%, the MIC (Shigella flexneri; clinical isolate JS 11215) was 50 µg/mL (≈ 94.1 µM) and the MIC (Shigella flexneri; clinical isolate JS 11839) was 3.13 µg/mL (≈ 5.89 µM). The MIC (Shigella sonnei; clinical isolate JS 11232) was 50 µg/mL (≈ 94.1 µM), the MIC (Shigella sonnei; clinical isolate JS 11755) was 3.13 µg/mL (≈ 5.89 µM) and the MIC (Salmonella typhi; clinical isolate SL 819) was 1.57 µg/mL (≈ 2.95 µM). It also gave an MIC (Salmonella typhi; clinical isolate SL 2169) of 1.57 µg/mL (≈ 2.95 µM), an MIC (Proteus morganii) of 0.79 µg/mL (≈ 1.49 µM) and an MIC (Pseudomonas aeruginosa; clinical isolate GN 376) of 3.13 µg/mL (≈ 5.89 µM). For the same compound, the MIC (Pseudomonas aeruginosa; clinical isolate GN 1035) was 25 µg/mL (≈ 47 µM), the MIC (Pseudomonas aeruginosa; clinical isolate GN 2565) was 12.5 µg/mL (≈ 23.5 µM) and the MIC (Pseudomonas aeruginosa; clinical isolate GN 2987) was 3.13 µg/mL (≈ 5.89 µM). The MIC (Pseudomonas aeruginosa; clinical isolate S-1) was 12.5 µg/mL (≈ 23.5 µM), the MIC (Pseudomonas aeruginosa; clinical isolate S-2) was 25 µg/mL (≈ 47 µM) and the MIC (Pseudomonas aeruginosa; clinical isolate S-3) was 25 µg/mL (≈ 47 µM). It also gave an MIC (Pseudomonas aeruginosa; clinical isolate S-4) of 12.5 µg/mL (≈ 23.5 µM) and an MIC (Proteus vulgaris) of less than 0.4 µg/mL.

`CC1(C)S[C@@H]2[C@H](NC(=O)Cc3ccccc3)C(=O)N2[C@H]1C(=O)O` [Potassium Penicillin G, reference compound] gave a Relative activity (β-lactamase) of 100%.

`CC1(C)S[C@@H]2[C@H](NC(=O)[C@H](N)c3ccccc3)C(=O)N2[C@H]1C(=O)O` [Sodium Ampicillin, SodiumAmpicillin, reference compound] gave an MIC (Klebsiella pneumoniae [1]; clinical isolate GN 917) of 25 µg/mL, an MIC (Klebsiella pneumoniae [1]; clinical isolate GN 3850) of 50 µg/mL and an MIC (Klebsiella pneumoniae [1]; clinical isolate GN 4081) greater than 200 µg/mL. The MIC (Klebsiella pneumoniae [1]; clinical isolate GN 4117) was greater than 200 µg/mL, the MIC (Staphylococcus aureus; clinical isolate F-2) was 0.79 µg/mL and the MIC (Staphylococcus aureus; clinical isolate F-5) was 50 µg/mL. For the same compound, the MIC (Staphylococcus aureus; clinical isolate MS 8588) was 6.25 µg/mL, the MIC (Staphylococcus aureus; clinical isolate MS 8619) was less than 0.4 µg/mL and the MIC (Escherichia coli; clinical isolate GN 3452) was 6.25 µg/mL. The MIC (Escherichia coli; clinical isolate GN 3481) was 6.25 µg/mL, the MIC (Escherichia coli; clinical isolate GN 3611) was greater than 200 µg/mL and the MIC (Escherichia coli; clinical isolate K-1) was 6.25 µg/mL. For the same compound, the MIC (Escherichia coli; clinical isolate K-2) was 6.25 µg/mL, the MIC (Escherichia coli; clinical isolate K-3) was greater than 200 µg/mL and the MIC (Proteus mirabilis) was less than 1.57 µg/mL. The MIC (Proteus rettgeri) was 200 µg/mL, the MIC (Salmonella typhi-murium; clinical isolate SL 858) was 3.13 µg/mL and the MIC (Salmonella typhi-murium; clinical isolate SL 2136) was greater than 200 µg/mL. It also gave an MIC (Proteus vulgaris 3027) greater than 200 µg/mL, an MIC [4] greater than 200 µg/mL and an MIC (Escherichia coli NIHJ) of less than 1.57 µg/mL. It also gave an MIC (Klebsiella pneumoniae [2]) of 50 µg/mL, an MIC [3] of less than 1.57 µg/mL and an MIC (Shigella flexneri; clinical isolate JS 11839) of 1.57 µg/mL. The MIC (Shigella sonnei; clinical isolate JS 11232) was greater than 200 µg/mL, the MIC (Shigella sonnei; clinical isolate JS 11755) was 6.25 µg/mL and the MIC (Salmonella typhi; clinical isolate SL 819) was 1.56 µg/mL. It also gave an MIC (Salmonella typhi; clinical isolate SL 2169) of 0.78 µg/mL, an MIC (Proteus morganii) of less than 1.57 µg/mL and an MIC (Pseudomonas aeruginosa; clinical isolate GN 82) greater than 200 µg/mL. For the same compound, the MIC (Pseudomonas aeruginosa; clinical isolate GN 163) was greater than 200 µg/mL, the MIC (Pseudomonas aeruginosa; clinical isolate GN 221) was greater than 200 µg/mL and the MIC (Pseudomonas aeruginosa; clinical isolate GN 376) was greater than 200 µg/mL. For the same compound, the MIC (Pseudomonas aeruginosa; clinical isolate GN 383) was greater than 200 µg/mL, the MIC (Pseudomonas aeruginosa; clinical isolate GN 1035) was greater than 200 µg/mL and the MIC (Pseudomonas aeruginosa; clinical isolate GN 1091) was greater than 200 µg/mL. The MIC (Pseudomonas aeruginosa; clinical isolate GN 2565) was greater than 200 µg/mL, the MIC (Pseudomonas aeruginosa; clinical isolate GN 2987) was greater than 200 µg/mL and the MIC (Pseudomonas aeruginosa; clinical isolate GN (number not given; Table 5-3)) was greater than 200 µg/mL. For the same compound, the MIC (Pseudomonas aeruginosa; clinical isolate S-1) was greater than 200 µg/mL, the MIC (Pseudomonas aeruginosa; clinical isolate S-2) was greater than 200 µg/mL and the MIC (Pseudomonas aeruginosa; clinical isolate S-3) was greater than 200 µg/mL. It also gave an MIC (Pseudomonas aeruginosa; clinical isolate S-4) greater than 200 µg/mL and an MIC (Proteus vulgaris) of less than 1.5 µg/mL.
